Results: patent publication US20250262179A1, “PHARMACEUTICAL COMPOSITION FOR PREVENTING AND/OR TREATING AUTOIMMUNE DISEASES” (NATIONAL CENTER FOR CHILD HEALTH AND DEVELOPMENT, priority 2022, published 2025)

Test system: collagen-induced arthritis (CIA) model rats
Test: Collagen-induced arthritis (CIA) model: foot volume and arthritis score
Assay type: in vivo, DA/Slc rats
Description: For 9 weeks-old female DA/Slc rats, under isoflurane anesthesia employing a simplified inhalation anesthesia device for animals (model type: NARCOBIT-E (type II), Natsume Seisakusho Co., Ltd.), the tail root which is the administration site was shaved with an electric shaver, and 0.05 mL in each of left and right sides of the tail root of all animals for a total of 0.1 mL of the symptom evoking substance administration fluid was intracutaneously administrated with a syringe (Terumo Corporation) and an injection needle (Terumo Corporation). The symptom evoking substance administration fluid was prepared by adding bovine type-II collagen and an equal amount of Incomplete Freund Adjuvant to an interchangeable glass syringe (TOP Corporation), and then mixing well.
The symptom evoking substance was administered only on Day 0, and each test substance was administered before the administration of the symptom evoking substance on the first day. MTX was suspended in 0.5 w/v % methylcellulose 400 solution (MC). ALA employed was aminolevulinic acid hydrochloride, and weights shown below are weights as aminolevulinic acid hydrochloride. […]
For measurement of foot volume, the foot volumes of left and right posterior limbs were each measured on Days 0 (before grouping), 4, 7, 11, 14, and 18 with a Plethysmometer (model type: MK-101P, Muromachi Kikai Co., Ltd.). The foot volume was measured three times per foot, and the average value of the three was calculated. The foot volume of the other foot was similarly measured. The foot volume measurement value of one individual was calculated with the following mathematical formula. […]
The measurement value before grouping was set as the Pre-value and the measurement value at each measurement point after grouping was set as the Post-value, and the value of increase in foot volume (A mL) was calculated by Post-value-Pre-value for each individual.
The arthritis score measurement was measured on each of Days 0 (before grouping), 4, 7, 11, 14, and 18. […] Note that the total sum of left and right arthritis scores was calculated as the score for that individual. […]

[1] = Day 18, oral once a day for 18 days, MTX 0.02 mg/kg, ALA 100 mg/kg, SFC 157 mg/kg

CN(Cc1cnc2nc(N)nc(N)c2n1)c1ccc(C(=O)N[C@@H](CCC(=O)O)C(=O)O)cc1 [MTX, (S)-2-(4-(((2,4-diaminopteridin-6-yl)methyl)methylamino)benzamido) pentanedioic acid]
intergroup difference to Group 5 (control) in arthritis score [1]: 1.5
intergroup difference to Group 5 (control) in value of increase in foot volume [1]: 0.16 mL
anti-inflammatory effect in CIA model rats (Group 1, only MTX 0.02 mg/kg oral daily): a certain level of anti-inflammatory effect was seen
